Laboratory results as given in patent publication US12344597B2, “Alkoxy-substituted pyridinyl derivatives as LPA1 receptor antagonists and their use in the treatment of fibrosis” (IDORSIA PHARMACEUTICALS LTD, priority 2018, dated 2025).

target: human LPA1 receptor (Homo sapiens (Human), UniProt Q92633); assay: Beta-arrestin recruitment assay to determine IC50 values for human LPAR1; type: cell-based; conditions: antagonist mode, Tango EDG2-bla U2OS cells, LPA 18:1 500 nM final
In short: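 Tango EDG2-bla U2OS cells: LPA-driven beta-arrestin/TEV protease recruitment releases Gal4-VP16, inducing beta-lactamase reporter read with live-cell substrate. Cells seeded 20 h at 37 °C beforehand. IC50 is antagonist concentration inhibiting 50% of maximal response.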

Chain of human LPA1 receptor (Q92633 whole entry, the tested form may be a part): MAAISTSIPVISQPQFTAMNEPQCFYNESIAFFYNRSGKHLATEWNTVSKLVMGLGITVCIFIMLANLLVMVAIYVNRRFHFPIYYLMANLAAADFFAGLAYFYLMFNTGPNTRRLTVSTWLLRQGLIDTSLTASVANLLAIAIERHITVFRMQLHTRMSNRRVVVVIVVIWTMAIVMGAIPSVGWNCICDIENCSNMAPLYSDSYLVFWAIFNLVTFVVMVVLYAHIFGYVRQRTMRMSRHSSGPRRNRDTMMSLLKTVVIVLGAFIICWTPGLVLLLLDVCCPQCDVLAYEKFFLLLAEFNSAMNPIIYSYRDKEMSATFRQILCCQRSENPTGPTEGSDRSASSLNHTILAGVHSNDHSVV

| SMILES | IC50 [nM] |
| --- | --- |
| CCOc1nc(C)ccc1NC(=O)C1(c2ccccc2C(C)C)CN(S(N)(=O)=O)C1 [Ex 15-17, N-(2-ethoxy-6-methylpyridin-3-yl)-3-(2-isopropylphenyl)-1-sulfamoylazetidine-3-carboxamide] | 31 |
| COC(=O)c1cc(N2CC(C(=O)Nc3ccc(C)nc3OC(F)F)(c3ccccc3C(C)C)C2)ncn1 [Ex 18-12, methyl 6-(3-((2-(difluoromethoxy)-6-methylpyridin-3-yl)carbamoyl)-3-(2-isopropylphenyl)azetidin-1-yl)pyrimidine-4-carboxylate] | 11 |
| Cc1ccc(NC(=O)C2(c3ccccc3C(C)C)CN(C(=O)C3CS(=O)(=O)C3)C2)c(OC(F)F)n1 [Ex 12-129, N-(2-(difluoromethoxy)-6-methylpyridin-3-yl)-1-(1,1-dioxidothietane-3-carbonyl)-3-(2-isopropylphenyl)azetidine-3-carboxamide] | 58 |
| COC(=O)CCC(=O)N1CC(C(=O)Nc2ccc(C)nc2OC)(c2ccccc2C(C)C)C1 [Ex 12-61, Methyl 4-(3-(2-isopropylphenyl)-3-((2-methoxy-6-methylpyridin-3-yl)carbamoyl)azetidin-1-yl)-4-oxobutanoate] | 276 |
| COC(=O)C(C)(C)CN1CC(C(=O)Nc2ccc(C)nc2OC(F)F)(c2ccccc2C(C)C)C1 [Ex 11-24, methyl 3-(3-((2-(difluoromethoxy)-6-methylpyridin-3-yl)carbamoyl)-3-(2-isopropylphenyl)azetidin-1-yl)-2,2-dimethylpropanoate] | 280 |
| Cc1ccc(NC(=O)C2(c3ccccc3C(C)C)CN(C(=O)C[C@@H](O)C(=O)O)C2)c(OC(F)F)n1 [Ex 12-35, (R)-4-(3-((2-(difluoromethoxy)-6-methylpyridin-3-yl)carbamoyl)-3-(2-isopropylphenyl)azetidin-1-yl)-2-hydroxy-4-oxobutanoic acid] | 41 |
| Cc1ccc(NC(=O)C2(c3nccnc3C(C)C)CNC2)c(OC(F)F)n1 [Ex 68, N-(2-(difluoromethoxy)-6-methylpyridin-3-yl)-3-(3-isopropylpyrazin-2-yl)azetidine-3-carboxamide] | 7620 |
| CC(C)c1ccccc1C1(C(=O)Nc2ncc(Br)cc2OC(F)F)CN(C(=O)NC2CC2)C1 [Ex 82-2, N3-(5-bromo-3-(difluoromethoxy)pyridin-2-yl)-N1-cyclopropyl-3-(2-isopropylphenyl)azetidine-1,3-dicarboxamide] | 3 |
| CCOC(=O)c1cnc(N2CC(C(=O)Nc3ccc(C)nc3OC(F)F)(c3ccccc3C(C)C)C2)o1 [Ex 18-31, ethyl 2-(3-((2-(difluoromethoxy)-6-methylpyridin-3-yl)carbamoyl)-3-(2-isopropylphenyl)azetidin-1-yl)oxazole-5-carboxylate] | 20 |
| CC(=O)N(CCC(=O)N1CC(C(=O)Nc2ccc(C)nc2OC(F)F)(c2ccccc2C(C)C)C1)OCc1ccccc1 [Ex 12-131, 1-(3-(N-(benzyloxy)acetamido)propanoyl)-N-(2-(difluoromethoxy)-6-methylpyridin-3-yl)-3-(2-isopropylphenyl)azetidine-3-carboxamide] | 640 |
| CCOC(=O)C[C@H](N)C(=O)N1CC(C(=O)Nc2ccc(C)nc2OC(F)F)(c2ccccc2C(C)C)C1 [Ex 12-100, ethyl (S)-3-amino-4-(3-((2-(difluoromethoxy)-6-methylpyridin-3-yl)carbamoyl)-3-(2-isopropylphenyl)azetidin-1-yl)-4-oxobutanoate] | 23 |
| Cc1ccc(NC(=O)C2(c3ccccc3C3CCOCC3)CNC2)c(OC(F)F)n1 [Ex 28, N-(2-(difluoromethoxy)-6-methylpyridin-3-yl)-3-(2-(tetrahydro-2H-pyran-4-yl)phenyl)azetidine-3-carboxamide] | 23 |
| Cc1ccc(NC(=O)C2(c3ccccc3C(C)C)CN(c3nccc(C(=O)O)n3)C2)c(OC(F)F)n1 [Ex 18-15, 2-(3-((2-(difluoromethoxy)-6-methylpyridin-3-yl)carbamoyl)-3-(2-isopropylphenyl)azetidin-1-yl)pyrimidine-4-carboxylic acid] | 47 |
| O=C(Nc1ncc(Cl)cc1OC(F)F)C1(c2ccccc2C2CCCC2)CNC1 [Ex 76, N-(5-chloro-3-(difluoromethoxy)pyridin-2-yl)-3-(2-cyclopentylphenyl)azetidine-3-carboxamide] | 19 |
| Cc1ccc(NC(=O)C2(c3ccccc3C(C)C)CN(CCC(C)(C)O)C2)c(OC(F)F)n1 [Ex 11-9, N-(2-(difluoromethoxy)-6-methylpyridin-3-yl)-1-(3-hydroxy-3-methylbutyl)-3-(2-isopropylphenyl)azetidine-3-carboxamide] | 14 |
| COC(=O)[C@@H](C)NC(=O)N1CC(C(=O)Nc2ccc(C)nc2OC(F)F)(c2ccccc2C(C)C)C1 [Ex 17-23, methyl (3-((2-(difluoromethoxy)-6-methylpyridin-3-yl)carbamoyl)-3-(2-isopropylphenyl)azetidine-1-carbonyl)-D-alaninate] | 5 |
| CCOC(=O)C[C@@H](CC(=O)N1CC(C(=O)Nc2ccc(C)nc2OC(F)F)(c2ccccc2C(C)C)C1)OC(C)=O [Ex 12-104, ethyl (R)-3-acetoxy-5-(3-((2-(difluoromethoxy)-6-methylpyridin-3-yl)carbamoyl)-3-(2-isopropylphenyl)azetidin-1-yl)-5-oxopentanoate] | 41 |
| Cc1ccc(NC(=O)C2(c3ccccc3C(C)C)CN(C[C@@H](O)CN(C)C)C2)c(OC(F)F)n1 [Ex 11-85, (S)-N-(2-(difluoromethoxy)-6-methylpyridin-3-yl)-1-(3-(dimethylamino)-2-hydroxypropyl)-3-(2-isopropylphenyl)azetidine-3-carboxamide] | 191 |
| COC(=O)C1(OC(=O)N2CC(C(=O)Nc3ccc(C)nc3OC(F)F)(c3ccccc3C(C)C)C2)CC1 [Ex 14-7, 1-(methoxycarbonyl)cyclopropyl 3-((2-(difluoromethoxy)-6-methylpyridin-3-yl)carbamoyl)-3-(2-isopropylphenyl)azetidine-1-carboxylate] | 79 |

Continued by falling IC50, values first:

| IC50 [nM] | SMILES |
| --- | --- |
| 556 | Cc1ccc(NC(=O)C2(c3ccccc3C(C)C)CN(C(=O)CC3NCCNC3=O)C2)c(OC(F)F)n1 (stereo not shown) [Ex 12-46, N-(2-(difluoromethoxy)-6-methylpyridin-3-yl)-3-(2-isopropylphenyl)-1-(2-(3-oxopiperazin-2-yl)acetyl)azetidine-3-carboxamide] |
| 95 | COC(=O)c1cnc(CN2CC(C(=O)Nc3ccc(C)nc3OC(F)F)(c3ccccc3C(C)C)C2)cn1 [Ex 11-54, methyl 5-((3-((2-(difluoromethoxy)-6-methylpyridin-3-yl)carbamoyl)-3-(2-isopropylphenyl)azetidin-1-yl)methyl)pyrazine-2-carboxylate] |
| 69 | COC(=O)C1(CCCN2CC(C(=O)Nc3ccc(C)nc3OC(F)F)(c3ccccc3C(C)C)C2)CC1 [Ex 11-70, methyl 1-(3-(3-((2-(difluoromethoxy)-6-methylpyridin-3-yl)carbamoyl)-3-(2-isopropylphenyl)azetidin-1-yl)propyl)cyclopropane-1-carboxylate] |
| 63 | COc1cnc(NC(=O)C2(c3ccccc3C(C)C)CN(S(N)(=O)=O)C2)c(OC)c1 [Ex 81-5, N-(3,5-dimethoxypyridin-2-yl)-3-(2-isopropylphenyl)-1-sulfamoylazetidine-3-carboxamide] |
| 55 | Cc1ccc(NC(=O)C2(c3ccccc3C(C)C)CN(Cc3nnn[nH]3)C2)c(OC(F)F)n1 [Ex 11-8, 1-((1H-tetrazol-5-yl)methyl)-N-(2-(difluoromethoxy)-6-methylpyridin-3-yl)-3-(2-isopropylphenyl)azetidine-3-carboxamide] |
| 52 | Cc1ccc(NC(=O)C2(c3ccccc3C(C)C)CN(CCC3(C(=O)O)CC3)C2)c(OC(F)F)n1 [Ex 11-72, 1-(2-(3-((2-(difluoromethoxy)-6-methylpyridin-3-yl)carbamoyl)-3-(2-isopropylphenyl)azetidin-1-yl)ethyl)cyclopropane-1-carboxylic acid] |
| 49 | Cc1ccc(NC(=O)C2(c3ccccc3C(C)C)CN(S(=O)(=O)CCCS(=O)(=O)O)C2)c(OC(F)F)n1 [Ex 13-30, 3-((3-((2-(difluoromethoxy)-6-methylpyridin-3-yl)carbamoyl)-3-(2-isopropylphenyl)azetidin-1-yl)sulfonyl)propane-1-sulfonic acid] |
| 42 | COC(=O)C(C)(C)COC(=O)N1CC(C(=O)Nc2ccc(C)nc2OC(F)F)(c2ccccc2C(C)C)C1 [Ex 14-9, 3-methoxy-2,2-dimethyl-3-oxopropyl 3-((2-(difluoromethoxy)-6-methylpyridin-3-yl)carbamoyl)-3-(2-isopropylphenyl)azetidine-1-carboxylate] |
| 34 | Cc1ccc(NC(=O)C2(c3ccccc3C(C)C)CN(C(=O)NCC(=O)O)C2)c(OC(F)F)n1 [Ex 17-4, (3-((2-(difluoromethoxy)-6-methylpyridin-3-yl)carbamoyl)-3-(2-isopropylphenyl)azetidine-1-carbonyl)glycine] |
| 21 | Cc1ccc(NC(=O)C2(c3ccccc3C(C)C)CCN(C(=O)C[C@@H]3OC(C)(C)OC3=O)CC2)c(OC(F)F)n1 [Ex 12-36, (S)-N-(2-(difluoromethoxy)-6-methylpyridin-3-yl)-1-(2-(2,2-dimethyl-5-oxo-1,3-dioxolan-4-yl)acetyl)-4-(2-isopropylphenyl)piperidine-4-carboxamide] |
| 12 | Cc1ccc(NC(=O)C2(c3ccccc3C(C)C)CN(c3ccc(C(=O)O)nn3)C2)c(OC(F)F)n1 [Ex 18-7, 6-(3-((2-(difluoromethoxy)-6-methylpyridin-3-yl)carbamoyl)-3-(2-isopropylphenyl)azetidin-1-yl)pyridazine-3-carboxylic acid] |
| 11 | Cc1ccc(NC(=O)C2(c3ccccc3C(C)C)CN(c3ncc(C(=O)O)cn3)C2)c(OC(F)F)n1 [Ex 18-5, 2-(3-((2-(difluoromethoxy)-6-methylpyridin-3-yl)carbamoyl)-3-(2-isopropylphenyl)azetidin-1-yl)pyrimidine-5-carboxylic acid] |
